Source: patent US5817828A, “Pyrazole derivatives” (Nissan Chemical Industries, Ltd., priority 1993, dated 1998)

Tests used:
angiotensin II (AngII) = test: Test for Antagonistic Effect against Angiotensin (inhibition of AngII contraction of rabbit thoracic aorta ring); type: cell-based; details: Oryctolagus cuniculus, AngII 10^-8 M, corrected using DMSO, read-out: Percentage of Inhibition of Contraction; for inhibition at 0.1 µM: 1 × 10^-7 M compound; for inhibition at 0.01 µM: 1 × 10^-8 M compound
Procedure: Test for Antagonistic Effect against Angiotensin:
A rabbit was sacrificed while anesthetized with pentobarbital, and immediately its thoracic aorta was removed. This was cut into a ring specimen, kept at 37° C. and hung in a nutrient liquid (Krebs-Henseleit solution) aerated with a mixed gas comprising 95% oxygen and 5% carbon dioxide, whereupon its isometric contraction was measured. The specimen was equilibrated for one hour, with replacement of the nutrient liquid every 20 minutes, and thereafter angiotensin II (AngII: 10^-8 M) was applied thereto to cause its contraction. To evaluate the effect of the compounds of the present invention, the compound to be tested (10^-7 M or 10^-8 M) was applied as pre-treatment to the specimen in 20 minutes before the fourth application of AngII thereto, the percentage of inhibiting the contraction caused by AngII was obtained on the basis of the third contraction caused by AngII of being 100%. The percentage was corrected, using dimethylsulfoxide (DMSO).

[1] = test system: Angiotensin II (AT2) Receptor; test: Test for Inhibition of Binding to Angiotensin II (AT2) Receptor; details: 10^-6 M compound; 0.1 nM ^125 I-AngII; bovine brain specimen; 37° C., 30 minutes
Procedure: Test for Inhibition of Binding to Angiotensin II (AT2) Receptor:
The effect of the compounds of the present invention for inhibiting the binding activity of Angiotensin II (AngII) to the bovine brain receptor were tested, according to the method by J. P. Bennett, Jr. et al. [J. Biol. Chem., 251, 7423-7430 (1976)].
10^-6 M of the compound of the present invention to be tested was added to an aqueous solution containing a predetermined amount of a bovine brain specimen and 0.1 nM of ^125 I-AngII and incubated at 37° C. for 30 minutes. The resulting solution was separated through a glass fiber filter to terminate the reaction. The radioactivity bonded to the filter was quantified by a γ-counter.

[2] = test system: spontaneous hypertensive male rat; test: Test for Hypotensive Effect (oral, spontaneous hypertensive rat); type: in vivo; details: 30 mg/kg, spontaneous hypertensive male rat (10-week age)
Procedure: Test for Hypotensive Effect
The compounds of the present invention to be tested were dissolved in a physiological saline solution and was orally administered to a spontaneous hypertensive male rat (10-week age). The blood pressure of the rat was measured, via a pressure transducer through the catheter that had previously been introduced into its aorta from its femoral artery. The variation in the blood pressure was observed from before the application of the compound to 20 hours after the application thereof.

SMILES | inhibition at 0.1 µM (angiotensin II (AngII)) [%] | inhibition at 0.01 µM (angiotensin II (AngII)) [%] | Percentage of Inhibition [1] [%] | Time after the administration at which the largest percentage of blood pressure depression was obtained [2] [h] | Largest Percentage of Blood Pressure Depression ([2]; observed to 20 hours) [%]
CCCN(Cc1ccc(-c2ccccc2-c2nnn[nH]2)cc1)c1nn(CCc2ccccc2)c(-c2cccs2)c1C(=O)O [compound 68] | 35 | 18 | – | – | –
CCCN(Cc1ccc(-c2ccccc2-c2nnn[nH]2)cc1)c1nn(CCc2ccccc2)c(-c2ccc(OC)cc2)c1C(=O)O [compound 64] | 92 | 29 | – | – | –
CCCN(Cc1ccc(-c2ccccc2-c2nnn[nH]2)cc1)c1nn(CCc2ccccc2)c(Cl)c1C(=O)O [compound 56] | 84 | 51 | – | – | –
CCCN(Cc1ccc(-c2ccccc2-c2nnn[nH]2)cc1)c1nn(CCc2ccccc2)c(-c2ccccc2)c1C(=O)O [compound 61] | 77 | 34 | – | – | –
CCCN(Cc1ccc(-c2ccccc2-c2nnn[nH]2)cc1)c1nn(CCc2ccccc2)c(Br)c1C(=O)O [compound 4] | 85 | 40 | 55.1 | 10 | 29.6
CCCNc1c(C(=O)O)c(N(CCC)Cc2ccc(-c3ccccc3-c3nnn[nH]3)cc2)nn1CCc1ccccc1 [compound 72] | 15 | 7 | – | – | –
CCCN(Cc1ccc(-c2ccccc2-c2nnn[nH]2)cc1)c1nn(CCc2ccccc2)c(-c2cccc(Br)n2)c1C(=O)O [compound 67] | 35 | 13 | – | – | –
CCCN(Cc1ccc(-c2ccccc2-c2nnn[nH]2)cc1)c1nn(CCc2ccccc2)c(C(=O)c2ccccc2)c1C(=O)O [compound 71] | 36 | 14 | – | – | –
